# Measurements reported in patent publication US8450361B2, “Substituted indole and azaindole oxoacetyl piperazinamide derivatives” (priority 2010, dated 2013).
# Test system: HIV-1
# Assay: Single-round infectious HIV-1 luciferase reporter virus infection of HeLa CD4 cells
# Format: cell-based
# Settings: Human immunodeficiency virus 1, HeLa, 72 h, read-out: EC50 Group from Table 1
# Description: • Virus production—Human embryonic Kidney cell line, 293T, was propagated in Dulbecco's Modified Eagle Medium (Invitrogen, Carlsbad, Calif.) containing 10% fetal Bovine serum (FBS, Sigma, St. Louis, Mo.). • Virus infection—Human epithelial cell line, HeLa, expressing the HIV-1 receptor CD4 was propagated in Dulbecco's Modified Eagle Medium (Invitrogen, Carlsbad, Calif.) containing 10% fetal Bovine serum (FBS, Sigma, St. Louis, Mo.) and supplemented with 0.2 mg/mL Geneticin (Invitrogen, Carlsbad, Calif.). Virus—Single-round infectious reporter virus was produced by co-transfecting human embryonic Kidney 293 cells with an HIV-1 envelope DNA expression vector and a proviral cDNA containing an envelope deletion mutation and the luciferase reporter gene inserted in place of HIV-1 nef sequences (Chen et al, Ref 41). Transfections were performed using lipofectAMINE PLUS reagent as described by the manufacturer (Invitrogen, Carlsbad, Calif.). Experiment • 1. HeLa CD4 cells were plated in 96 well plates at a cell density of 1×10^4 cells per well in 100 μl Dulbecco's Modified Eagle Medium containing 10% fetal Bovine serum and incubated overnight. • 2. Compound was added in a 2 μl dimethylsulfoxide solution, so that the final assay concentration would be ≦10 μM. • 3. 100 μl of single-round infectious reporter virus in Dulbecco's Modified Eagle Medium was then added to the plated cells and compound at an approximate multiplicity of infection (MOI) of 0.01, resulting in a final volume of 200 μl per well. • 4. Virally-infected cells were incubated at 37 degrees Celsius, in a CO2 incubator, and harvested 72 h after infection. • 5. Viral infection was monitored by measuring luciferase expression from viral DNA in the infected cells using a luciferase reporter gene assay kit, as described by the manufacturer (Roche Molecular Biochemicals, Indianapolis, Ind.). Infected cell supernatants were removed and 50 μl of lysis buffer was added per well. After 15 minutes, 50 μl of freshly-reconstituted luciferase assay reagent was added per well. Luciferase activity was then quantified by measuring luminescence using a Wallac microbeta scintillation counter. • 6. The percent inhibition for each compound was calculated by quantifying the level of luciferase expression in cells infected in the presence of each compound as a percentage of that observed for cells infected in the absence of compound and subtracting such a determined value from 100. • 7. An EC50 provides a method for comparing the antiviral potency of the compounds of this invention. The effective concentration for fifty percent inhibition (EC50) was calculated with the Microsoft Excel Xlfit curve fitting software. For each compound, curves were generated from percent inhibition calculated at 10 different concentrations by using a four parameter logistic model (model 205). Table 1 is the key for the data in Table 2. Results
row,Compound,EC50 [µM]
1,C[C@@H]1CN(C(=O)c2ccccc2)CCN1C(=O)C(=O)c1c[nH]c2c(NC(=O)CNC(C)(C)C)cccc12 [P-A-1],< 1
2,C[C@@H]1CN(C(=O)c2ccccc2)CCN1C(=O)C(=O)c1c[nH]c2c(NC(=O)C[N+](C)(C)C)cccc12 [P-A-2],< 1
3,C[C@@H]1CN(C(=O)c2ccccc2)CCN1C(=O)C(=O)c1c[nH]c2c(NC(=O)CN(C)C)cccc12 [P-A-3],< 1
4,CC(=O)OCC(=O)Nc1cccc2c(C(=O)C(=O)N3CCN(C(=O)c4ccccc4)C[C@H]3C)c[nH]c12 [P-A-4],< 1
5,CC(=O)Nc1cccc2c(C(=O)C(=O)N3CCN(C(=O)c4ccccc4)C[C@H]3C)c[nH]c12 [P-A-5],< 1
6,COC(=O)CCC(=O)Nc1cccc2c(C(=O)C(=O)N3CCN(C(=O)c4ccccc4)C[C@H]3C)c[nH]c12 [P-A-7],< 1
7,C[C@@H]1CN(C(=O)c2ccccc2)CCN1C(=O)C(=O)c1c[nH]c2c(NC(=O)CCC(=O)O)cccc12 [P-A-8],< 1
8,C[C@@H]1CN(C(=O)c2ccccc2)CCN1C(=O)C(=O)c1c[nH]c2c(NC(=O)/C=C/C(=O)O)cccc12 [P-A-9],< 1
9,C[C@@H]1CN(C(=O)c2ccccc2)CCN1C(=O)C(=O)c1c[nH]c2c(NC(=O)C3OC3C(=O)O)cccc12 (stereo partly shown) [P-A-10],< 1
10,COC(=O)[C@H]1OC(C)(C)O[C@@H]1C(=O)Nc1cccc2c(C(=O)C(=O)N3CCN(C(=O)c4ccccc4)C[C@H]3C)c[nH]c12 [P-A-13],< 1
11,C[C@@H]1CN(C(=O)c2ccccc2)CCN1C(=O)C(=O)c1c[nH]c2c(NC(=O)[C@H]3OC(C)(C)O[C@@H]3C(=O)O)cccc12 [P-A-14],< 1
12,COC(=O)[C@@H]1OC(C)(C)O[C@H]1C(=O)Nc1cccc2c(C(=O)C(=O)N3CCN(C(=O)c4ccccc4)C[C@H]3C)c[nH]c12 [P-A-15],< 1
13,C[C@@H]1CN(C(=O)c2ccccc2)CCN1C(=O)C(=O)c1c[nH]c2c(NC(=O)[C@@H]3OC(C)(C)O[C@H]3C(=O)O)cccc12 [P-A-16],< 1
14,COC(=O)C(O)C(O)C(=O)Nc1cccc2c(C(=O)C(=O)N3CCN(C(=O)c4ccccc4)C[C@H]3C)c[nH]c12 (stereo partly shown) [P-A-17],< 1
15,C[C@@H]1CN(C(=O)c2ccccc2)CCN1C(=O)C(=O)c1c[nH]c2c(NC(=O)C(=O)O)cccc12 [P-A-18],< 1
16,C[C@@H]1CN(C(=O)c2ccccc2)CCN1C(=O)C(=O)c1c[nH]c2c(NC(=O)c3ccccn3)cccc12 [P-A-20],< 1
17,C[C@@H]1CN(C(=O)c2ccccc2)CCN1C(=O)C(=O)c1c[nH]c2c(NC(=O)c3ccno3)cccc12 [P-A-21],< 1
18,C[C@@H]1CN(C(=O)c2ccccc2)CCN1C(=O)C(=O)c1c[nH]c2c(NC(=O)c3cccc(B(O)O)c3)cccc12 [P-A-22],< 1
19,C[C@@H]1CN(C(=O)c2ccccc2)CCN1C(=O)C(=O)c1c[nH]c2c(NC(=O)c3ccc(B(O)O)cc3)cccc12 [P-A-23],< 1
20,CC(=O)Nc1ccc(F)c2c(C(=O)C(=O)N3CCC(=C(C#N)c4ccccn4)CC3)c[nH]c12 [P-B-1],< 1
21,CC(=O)Nc1ccc(F)c2c(C(=O)C(=O)N3CCN(C(=O)c4ccccc4)CC3)c[nH]c12 [P-B-2],< 1
22,CC(=O)Nc1ccc(F)c2c(C(=O)C(=O)N3CC/C(=C(\C#N)c4ccccc4)CC3C)c[nH]c12 (stereo not shown) [P-B-3],< 1
23,CC(=O)Nc1ccc(F)c2c(C(=O)C(=O)N3CCC(=C(C#N)c4ccccc4)CC3)c[nH]c12 [P-B-4],< 1
24,CC(=O)Nc1ccc(F)c2c(C(=O)C(=O)N3CCC(=C(C#N)c4cccnc4)CC3)c[nH]c12 [P-B-5],< 1
25,CC(=O)Nc1ccc(F)c2c(C(=O)C(=O)N3CCC(=C(C#N)c4ccncc4)CC3)c[nH]c12 [P-B-6],< 1
26,CC(=O)Nc1ccc(F)c2c(C(=O)C(=O)N3CC/C(=C(\C#N)c4cccnc4)CC3C)c[nH]c12 (stereo not shown) [P-B-7],< 1
27,CCOC(=O)CNC(=O)Nc1cccc2c(C(=O)C(=O)N3CCN(C(=O)c4ccccc4)C[C@H]3C)c[nH]c12 [P-C-1],< 1
28,CCOC(=O)CCNC(=O)Nc1cccc2c(C(=O)C(=O)N3CCN(C(=O)c4ccccc4)C[C@H]3C)c[nH]c12 [P-C-2],< 1

row,Compound,EC50 [µM]
1,CCOC(=O)CCNC(=O)Nc1cccc2c(C(=O)C(=O)N3CCC(=C(C#N)c4ccccc4)CC3)c[nH]c12 [P-C-3],< 1
2,COC(=O)CCCNC(=O)Nc1cccc2c(C(=O)C(=O)N3CCN(C(=O)c4ccccc4)C[C@H]3C)c[nH]c12 [P-C-4],< 1
3,CCOC(=O)CCCNC(=O)Nc1cccc2c(C(=O)C(=O)N3CCN(C(=O)c4ccccc4)C[C@H]3C)c[nH]c12 [P-C-5],< 1
4,CCOC(=O)CCCNC(=O)Nc1cccc2c(C(=O)C(=O)N3CCC(=C(C#N)c4ccccc4)CC3)c[nH]c12 [P-C-6],< 1
5,CCOC(=O)CCCCCNC(=O)Nc1cccc2c(C(=O)C(=O)N3CCN(C(=O)c4ccccc4)C[C@H]3C)c[nH]c12 [P-C-7],< 1
6,CCOC(=O)CCCCCNC(=O)Nc1cccc2c(C(=O)C(=O)N3CCC(=C(C#N)c4ccccc4)CC3)c[nH]c12 [P-C-8],< 1
7,COC(=O)c1ccccc1NC(=O)Nc1cccc2c(C(=O)C(=O)N3CCN(C(=O)c4ccccc4)C[C@H]3C)c[nH]c12 [P-C-9],< 1
8,CCOC(=O)c1ccccc1NC(=O)Nc1cccc2c(C(=O)C(=O)N3CCN(C(=O)c4ccccc4)C[C@H]3C)c[nH]c12 [P-C-10],< 1
9,CCOC(=O)c1ccccc1NC(=O)Nc1cccc2c(C(=O)C(=O)N3CCC(=C(C#N)c4ccccc4)CC3)c[nH]c12 [P-C-11],< 1
10,CCOC(=O)c1cccc(NC(=O)Nc2cccc3c(C(=O)C(=O)N4CCN(C(=O)c5ccccc5)C[C@H]4C)c[nH]c23)c1 [P-C-12],< 1
11,CCOC(=O)c1cccc(NC(=O)Nc2cccc3c(C(=O)C(=O)N4CCC(=C(C#N)c5ccccc5)CC4)c[nH]c23)c1 [P-C-13],< 1
12,CCOC(=O)c1ccc(NC(=O)Nc2cccc3c(C(=O)C(=O)N4CCN(C(=O)c5ccccc5)C[C@H]4C)c[nH]c23)cc1 [P-C-14],< 1
13,CCOC(=O)c1ccc(NC(=O)Nc2cccc3c(C(=O)C(=O)N4CCC(=C(C#N)c5ccccc5)CC4)c[nH]c23)cc1 [P-C-15],< 1
14,COC(=O)c1cc(NC(=O)Nc2cccc3c(C(=O)C(=O)N4CCN(C(=O)c5ccccc5)C[C@H]4C)c[nH]c23)cc(C(=O)OC)c1 [P-C-16],< 1
15,COC(=O)c1cc(NC(=O)Nc2cccc3c(C(=O)C(=O)N4CCC(=C(C#N)c5ccccc5)CC4)c[nH]c23)cc(C(=O)OC)c1 [P-C-17],< 1
16,COS(=O)(=O)c1ccc(NC(=O)Nc2cccc3c(C(=O)C(=O)N4CCC(=C(C#N)c5ccccc5)CC4)c[nH]c23)cc1 [P-C-18],< 1
17,C[C@@H]1CN(C(=O)c2ccccc2)CCN1C(=O)C(=O)c1c[nH]c2c(NC(=O)Nc3ccc(S(=O)(=O)O)cc3)cccc12 [P-C-19],< 1
18,N#CC(=C1CCN(C(=O)C(=O)c2c[nH]c3c(NC(=O)Nc4ccc(S(=O)(=O)O)cc4)cccc23)CC1)c1ccccc1 [P-C-20],< 1
19,CCN(CC)S(=O)(=O)c1ccc(NC(=O)Nc2cccc3c(C(=O)C(=O)N4CCC(=C(C#N)c5ccccc5)CC4)c[nH]c23)cc1 [P-C-21],< 1
20,C[C@@H]1CN(C(=O)c2ccccc2)CCN1C(=O)C(=O)c1c[nH]c2c(NC(=O)Nc3ccc(C#N)cc3)cccc12 [P-C-22],< 1
21,N#CC(=C1CCN(C(=O)C(=O)c2c[nH]c3c(NC(=O)Nc4ccc(C#N)cc4)cccc23)CC1)c1ccccc1 [P-C-23],< 1
22,C[C@@H]1CN(C(=O)c2ccccc2)CCN1C(=O)C(=O)c1c[nH]c2c(NC(=O)NC3CCN(C(=O)C(F)(F)F)CC3)cccc12 [P-C-24],< 1
23,N#CC(=C1CCN(C(=O)C(=O)c2c[nH]c3c(NC(=O)NC4CCN(C(=O)C(F)(F)F)CC4)cccc23)CC1)c1ccccc1 [P-C-25],< 1
24,CCOC(=O)CCCNC(=O)Nc1ncc(F)c2c(C(=O)C(=O)N3CCN(C(=O)c4ccccc4)CC3)c[nH]c12 [P-C-26],< 1
25,C[C@@H]1CN(C(=O)c2ccccc2)CCN1C(=O)C(=O)c1c[nH]c2c(NC(=O)NCCCCNC(=O)Nc3ccc(B(O)O)cc3)cccc12 [P-C-103],< 1
26,C[C@@H]1CN(C(=O)c2ccccc2)CCN1C(=O)C(=O)c1c[nH]c2c(NC(=O)NCCCCCCNC(=O)Nc3ccc(B(O)O)cc3)cccc12 [P-C-106],< 1
27,C[C@@H]1CN(C(=O)c2ccccc2)CCN1C(=O)C(=O)c1c[nH]c2c(NC(=O)NCCCCCCCCNC(=O)Nc3ccc(B(O)O)cc3)cccc12 [P-C-109],< 1
